Data as given in US12441718B2, “Selective angiotensin II compounds” (VICORE PHARMA AB, priority 2021, dated 2025).
Where “and” joins values, the source holds several entries; their conditions need not be identical. Identical values can stand only once. Like-named read-outs stand apart in the source and are kept apart here.

Key:
[1] = Metabolic stability in pooled human liver microsomes; assay type: in vitro ADME; conditions: human, pooled human liver microsomes, pooled human liver microsomes 0.5 mg/mL, 1 μM test compound, 37° C., * rows = mean of two runs
Description: Pooled human liver microsomes in PBS at a concentration of 0.5 mg/mL was incubated with or without 1 mM NADPH for 70 min at 37° C. Test compound was added after 10 minutes to a final concentration of 1 μM. Samples were withdrawn at 0, 5, 15 and 60 minutes and added to test tubes containing acetonitrile, to stop the reaction, and with terfenadine, used as internal standard. After centrifugation at 10 000×g for 5 minutes the supernatant was diluted 1:1 with 1% formic acid. Samples were separated on a reverse phase column and detected by triple quadrupole MSMS (Agilant model 6540). The concentration of the parent compound at the different time points was measured with an external standard curve using terfenadine as internal standard and the initial metabolic rate in the presence or absence of NADPH calculated.

CYP1A2 = target: T1, CYP1A2 (Homo sapiens, UniProt P05177); test: in vitro; assay type: in vitro ADME; conditions: human liver microsomes, substrate phenacetin; for inhibition at 10 µM: human, microsomes, read-out: CYP1A2 Inh %
T1 construct: isoform-specific substrates incubated with human liver microsomes; tissue Eurofins ITEMG232 (protocol number); host or cells: human liver microsomes
Description: The following substrates were used; CYP1A phenacetin, CYP2B36 bupropion, CYP2C8 paclitaxel and amodiaquine, CYP2C9 diclofenac, CYP2C19 omeprazole, CYP2D6 dextromethorphan, CYP3A midazolam and testosterone.
At the end of the incubation, the formation of metabolite was monitored by HPLC-MS/MS as the peak area response.

CYP2B6 = target: T2, CYP2B6 (Homo sapiens, UniProt P20813); test: CYP inhibition in human liver microsomes (Eurofins ITEMG232); assay type: in vitro ADME; conditions: probe bupropion, substrate bupropion, read-out: CYP2B6 Inh %
T2 construct: isoform-specific substrates incubated with human liver microsomes; tissue Eurofins ITEMG232 (protocol number); host or cells: human liver microsomes
T2 sequence (P20813 1-491): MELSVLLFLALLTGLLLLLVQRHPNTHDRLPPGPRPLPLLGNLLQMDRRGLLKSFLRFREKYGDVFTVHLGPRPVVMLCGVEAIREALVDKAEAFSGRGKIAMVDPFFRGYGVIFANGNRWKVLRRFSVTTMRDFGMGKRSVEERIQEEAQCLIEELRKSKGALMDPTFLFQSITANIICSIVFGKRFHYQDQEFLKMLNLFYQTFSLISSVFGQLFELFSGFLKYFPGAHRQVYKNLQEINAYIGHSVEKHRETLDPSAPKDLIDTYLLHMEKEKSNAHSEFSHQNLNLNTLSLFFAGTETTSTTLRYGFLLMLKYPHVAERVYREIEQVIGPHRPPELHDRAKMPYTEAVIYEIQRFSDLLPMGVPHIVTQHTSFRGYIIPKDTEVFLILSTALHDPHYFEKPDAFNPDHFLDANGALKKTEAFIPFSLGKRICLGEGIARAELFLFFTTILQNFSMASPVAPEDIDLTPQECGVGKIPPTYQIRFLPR

CYP2C19 = target: T3, CYP2C19 (Homo sapiens, UniProt P33261); test: as above; assay type: in vitro ADME; conditions: substrate omeprazole; for inhibition at 10 µM: human, probe omeprazole, read-out: CYP2C19 Inh %
T3 construct: isoform-specific substrates incubated with human liver microsomes; tissue Eurofins ITEMG232 (protocol number); host or cells: human liver microsomes

CYP2C8 = target: T4, CYP2C8 (Homo sapiens, UniProt P10632); test: as above; assay type: in vitro ADME; conditions: substrate paclitaxel and amodiaquine; for inhibition at 10 µM: human, probe paclitaxel and amodiaquine, read-out: CYP2C8 Inh %
T4 construct: isoform-specific substrates incubated with human liver microsomes; tissue Eurofins ITEMG232 (protocol number); host or cells: human liver microsomes
T4 sequence (P10632 1-490): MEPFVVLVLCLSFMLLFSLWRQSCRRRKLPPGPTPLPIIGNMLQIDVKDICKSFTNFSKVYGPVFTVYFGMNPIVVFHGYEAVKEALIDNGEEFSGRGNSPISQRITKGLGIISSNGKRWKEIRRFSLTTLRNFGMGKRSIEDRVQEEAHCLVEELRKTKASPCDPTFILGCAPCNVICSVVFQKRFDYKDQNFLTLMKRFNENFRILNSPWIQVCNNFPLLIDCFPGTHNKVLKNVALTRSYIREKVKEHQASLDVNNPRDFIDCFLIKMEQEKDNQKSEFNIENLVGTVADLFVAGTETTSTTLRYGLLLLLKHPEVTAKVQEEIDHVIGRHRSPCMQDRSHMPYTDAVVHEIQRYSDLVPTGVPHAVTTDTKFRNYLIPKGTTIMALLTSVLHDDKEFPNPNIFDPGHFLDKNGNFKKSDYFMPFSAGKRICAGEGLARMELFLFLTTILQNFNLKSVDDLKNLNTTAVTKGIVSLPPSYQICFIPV

CYP2D6 = target: T5, CYP2D6 (Homo sapiens, UniProt P10635); test: as above; assay type: in vitro ADME; conditions: probe dextromethorphan, substrate dextromethorphan, read-out: CYP2D6 Inh %
T5 construct: isoform-specific substrates incubated with human liver microsomes; tissue Eurofins ITEMG232 (protocol number); host or cells: human liver microsomes

CYP3A4&5 = test: in vitro; conditions: human, human liver microsomes, probe testosterone;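 note: Read-out is the metabolite generated from the probe substrate, quantified as HPLC-MS/MS peak area once incubation ends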
CYP2C9 = CYP2C9 (Homo sapiens, UniProt P11712); test: CYP inhibition in human liver microsomes (Eurofins ITEMG232); assay type: in vitro ADME; set-up: isoform-specific substrates incubated with human liver microsomes; tissue Eurofins ITEMG232 (protocol number); host or cells: human liver microsomes; conditions: substrate diclofenac; for inhibition at 10 µM: human, probe diclofenac, read-out: CYP2C9 Inh %
CYP3A4 = CYP3A4 (Homo sapiens, UniProt P08684); test: CYP inhibition in human liver microsomes (Eurofins ITEMG232), midazolam substrate; assay type: in vitro ADME; set-up: isoform-specific substrates incubated with human liver microsomes; tissue Eurofins ITEMG232 (protocol number); host or cells: human liver microsomes; conditions: for inhibition at 10 µM: human, probe midazolam, read-out: CYP3A4 midazolam Inh %
[2] = with 1 mM NADPH, read-out: T1/2, + NaDPH
[3] = without NADPH, read-out: T1/2, no NaDPH

Chain of CYP2C9 (P11712 whole entry, canonical isoform): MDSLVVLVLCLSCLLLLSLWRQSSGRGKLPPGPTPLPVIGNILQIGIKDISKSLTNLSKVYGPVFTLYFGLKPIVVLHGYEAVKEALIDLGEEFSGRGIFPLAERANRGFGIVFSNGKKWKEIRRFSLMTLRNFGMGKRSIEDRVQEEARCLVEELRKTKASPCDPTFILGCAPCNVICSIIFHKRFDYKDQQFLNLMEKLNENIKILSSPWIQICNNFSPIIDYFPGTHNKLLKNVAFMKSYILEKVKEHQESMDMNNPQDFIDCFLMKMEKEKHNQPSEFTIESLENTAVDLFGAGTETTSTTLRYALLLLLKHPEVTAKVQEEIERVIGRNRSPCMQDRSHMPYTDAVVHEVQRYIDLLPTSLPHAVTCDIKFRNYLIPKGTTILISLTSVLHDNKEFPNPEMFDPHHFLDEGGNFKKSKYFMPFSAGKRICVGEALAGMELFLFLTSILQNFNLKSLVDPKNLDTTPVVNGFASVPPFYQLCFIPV
Chain of CYP3A4 (P08684 whole entry, canonical isoform): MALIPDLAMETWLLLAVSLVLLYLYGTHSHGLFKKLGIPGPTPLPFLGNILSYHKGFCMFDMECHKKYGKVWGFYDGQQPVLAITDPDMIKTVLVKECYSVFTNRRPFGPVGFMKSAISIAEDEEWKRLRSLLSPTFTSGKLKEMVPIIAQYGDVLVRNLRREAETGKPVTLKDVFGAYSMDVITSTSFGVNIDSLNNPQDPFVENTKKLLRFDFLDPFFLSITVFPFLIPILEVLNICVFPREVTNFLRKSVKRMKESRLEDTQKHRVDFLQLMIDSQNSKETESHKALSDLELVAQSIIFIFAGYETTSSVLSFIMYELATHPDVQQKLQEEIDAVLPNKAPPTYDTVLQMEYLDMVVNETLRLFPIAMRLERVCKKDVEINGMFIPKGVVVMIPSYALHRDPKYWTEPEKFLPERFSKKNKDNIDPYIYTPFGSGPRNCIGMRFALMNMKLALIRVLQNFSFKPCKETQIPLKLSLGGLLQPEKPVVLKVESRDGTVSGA
T5 sequence (P10635 whole entry, canonical isoform): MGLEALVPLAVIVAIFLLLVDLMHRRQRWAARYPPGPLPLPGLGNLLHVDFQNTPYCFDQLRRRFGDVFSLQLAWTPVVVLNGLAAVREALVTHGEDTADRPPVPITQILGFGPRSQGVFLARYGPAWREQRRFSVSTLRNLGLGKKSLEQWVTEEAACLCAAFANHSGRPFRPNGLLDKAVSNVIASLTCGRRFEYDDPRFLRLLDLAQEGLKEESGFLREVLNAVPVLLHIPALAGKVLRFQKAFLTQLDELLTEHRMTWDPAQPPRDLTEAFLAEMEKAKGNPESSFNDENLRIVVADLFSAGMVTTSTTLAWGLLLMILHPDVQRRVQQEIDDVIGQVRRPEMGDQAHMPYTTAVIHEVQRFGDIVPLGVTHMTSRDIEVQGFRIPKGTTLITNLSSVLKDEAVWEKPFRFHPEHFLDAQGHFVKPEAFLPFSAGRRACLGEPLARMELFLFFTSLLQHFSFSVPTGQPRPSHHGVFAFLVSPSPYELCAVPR
T1 sequence (P05177 whole entry, canonical isoform): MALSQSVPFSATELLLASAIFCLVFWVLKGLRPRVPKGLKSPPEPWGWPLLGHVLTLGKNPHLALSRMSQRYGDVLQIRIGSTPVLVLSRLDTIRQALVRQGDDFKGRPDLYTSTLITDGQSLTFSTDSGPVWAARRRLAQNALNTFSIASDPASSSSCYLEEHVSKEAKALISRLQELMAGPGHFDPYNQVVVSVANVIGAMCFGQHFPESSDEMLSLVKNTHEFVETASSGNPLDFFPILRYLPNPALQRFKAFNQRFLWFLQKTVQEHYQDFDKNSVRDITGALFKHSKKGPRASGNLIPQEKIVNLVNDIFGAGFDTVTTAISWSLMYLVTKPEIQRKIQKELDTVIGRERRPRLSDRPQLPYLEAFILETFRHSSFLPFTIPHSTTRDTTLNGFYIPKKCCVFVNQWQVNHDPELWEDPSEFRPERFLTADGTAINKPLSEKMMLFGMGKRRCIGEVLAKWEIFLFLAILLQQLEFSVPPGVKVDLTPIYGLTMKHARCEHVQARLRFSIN
T3 sequence (P33261 whole entry, canonical isoform): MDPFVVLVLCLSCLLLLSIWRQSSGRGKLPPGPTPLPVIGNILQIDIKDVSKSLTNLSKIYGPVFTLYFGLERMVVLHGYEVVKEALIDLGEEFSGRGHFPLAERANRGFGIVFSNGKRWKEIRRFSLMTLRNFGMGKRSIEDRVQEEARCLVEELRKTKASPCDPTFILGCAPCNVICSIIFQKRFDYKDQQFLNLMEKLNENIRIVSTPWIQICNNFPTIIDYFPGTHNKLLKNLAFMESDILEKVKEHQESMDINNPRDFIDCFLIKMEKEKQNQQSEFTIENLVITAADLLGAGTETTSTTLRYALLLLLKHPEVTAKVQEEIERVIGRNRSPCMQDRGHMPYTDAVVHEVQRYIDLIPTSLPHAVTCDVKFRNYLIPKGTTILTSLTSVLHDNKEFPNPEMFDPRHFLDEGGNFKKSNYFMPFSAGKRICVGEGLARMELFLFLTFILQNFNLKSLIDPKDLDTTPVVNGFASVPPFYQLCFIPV

With `CC(C)Cc1ccc(S(=O)(=O)Nc2nccs2)c(-c2ccc(Cn3ccnc3C(C)(C)C)cc2)c1` [Example 5, 4′-((2-(tert-Butyl)-1H-imidazol-1-yl)methyl)-5-isobutyl-N-(thiazol-2-yl)-[1,1′-biphenyl]-2-sulfonamide] the half-life at 1 μM [1, 2] was 0.717 h, the half-life at 1 μM [1, 3] was over 1 h and the inhibition at 10 µM (CYP1A2) was 19.2%. It also gave an inhibition at 10 µM (CYP2B6) of 56.5%, an inhibition at 10 µM (CYP2C19) of 70.1% and an inhibition at 10 µM (CYP2C8) of 92.1%. For the same molecule, the inhibition at 10 µM (CYP2D6) was 44.5%, the inhibition at 10 µM (CYP3A4&5) was 56% and the inhibition at 10 µM (CYP2C9) was 72.9%. For the same molecule, the inhibition at 10 µM (CYP3A4) was -11.4%.

For `CC(C)Cc1ccc(S(=O)(=O)Nc2ncc(C#N)cn2)c(-c2ccc(Cn3ccnc3C(C)(C)C)cc2)c1` [Example 6, 4′-((2-(tert-Butyl)-1H-imidazol-1-yl)methyl)-N-(5-cyanopyrimidin-2-yl)-5-isobutyl-[1,1′-biphenyl]-2-sulfonamide], the “CYP1A2 Inh %” value (CYP1A2; 10 μM) was 36.2% and 65.6%, the “CYP2C19 Inh %” value (CYP2C19; 10 μM) was 38.6% and 66.6% and the “CYP2C8 Inh %” value (CYP2C8; 10 μM) was 49.2% and 95.6%. For the same molecule, the “CYP2C9 Inh %” value (CYP2C9; 10 μM) was 37.1% and 71.9% and the “CYP3A4 midazolam Inh %” value (CYP3A4; 10 μM) was 28.2% and 48.5%.

In the case of `COc1ncnc(OC)c1NS(=O)(=O)c1ccc(CC(C)C)cc1-c1ccc(Cn2ccnc2C(C)(C)C)cc1` [Example 19, 4′-((2-(tert-Butyl)-1H-imidazol-1-yl)methyl)-N-(4,6-dimethoxypyrimidin-5-yl)-5-isobutyl-[1,1′-biphenyl]-2-sulfonamide], the half-life at 1 μM [1, 2] is reported as 0.15 h, the half-life at 1 μM [1, 3] is reported as over 1 h and the inhibition at 10 µM (CYP1A2) is reported as 21.7%. For the same molecule, the inhibition at 10 µM (CYP2B6) was 27.5%, the inhibition at 10 µM (CYP2C19) was 74.8% and the inhibition at 10 µM (CYP2C8) was 54.3%. It also gave an inhibition at 10 µM (CYP2D6) of 45.2%, an inhibition at 10 µM (CYP3A4&5) of 63% and an inhibition at 10 µM (CYP2C9) of 87.6%. For the same molecule, the inhibition at 10 µM (CYP3A4) was 73%.

`CC(C)Cc1ccc(S(=O)(=O)Nc2ncc(Cl)cn2)c(-c2ccc(Cn3ccnc3C(C)(C)C)cc2)c1` [Example 2, 4′-((2-(tert-Butyl)-1H-imidazol-1-yl)methyl)-N-(5-chloropyrimidin-2-yl)-5-isobutyl-[1,1′-biphenyl]-2-sulfonamide] showed a half-life at 1 μM [1, 2] of over 1 h, a half-life at 1 μM [1, 3] of over 1 h and an inhibition at 10 µM (CYP1A2) of 84%. For the same molecule, the inhibition at 10 µM (CYP2B6) was 14%, the inhibition at 10 µM (CYP2C19) was 37% and the inhibition at 10 µM (CYP2C8) was 88.7%. For the same molecule, the inhibition at 10 µM (CYP2D6) was 5.7%, the inhibition at 10 µM (CYP3A4&5) was 3.3% and the inhibition at 10 µM (CYP2C9) was 46%. It also gave an inhibition at 10 µM (CYP3A4) of 36%.

For `CCc1nccn1Cc1ccc(-c2cc(CC(C)C)sc2S(=O)(=O)Nc2ncccn2)cc1F` [Example 45, 3-(4-((2-Ethyl-1H-imidazol-1-yl)methyl)-3-fluorophenyl)-5-isobutyl-N-(pyrimidin-2-yl)thiophene-2-sulfonamide], the half-life at 1 μM [1, 2] was over 1 h, the half-life at 1 μM [1, 3] was over 1 h and the inhibition at 10 µM (CYP1A2) was 54%. It also gave an inhibition at 10 µM (CYP2B6) of 16%, an inhibition at 10 µM (CYP2C19) of 65% and an inhibition at 10 µM (CYP2C8) of 64%. For the same molecule, the inhibition at 10 µM (CYP2D6) was 13%, the inhibition at 10 µM (CYP3A4&5) was 62% and the inhibition at 10 µM (CYP2C9) was 20%. For the same molecule, the inhibition at 10 µM (CYP3A4) was 15%.

`COc1ncncc1NS(=O)(=O)c1ccc(CC(C)C)cc1-c1ccc(Cn2ccnc2C(C)(C)C)cc1` [Example 18, 4′-((2-(tert-Butyl)-1H-imidazol-1-yl)methyl)-5-isobutyl-N-(4-methoxypyrimidin-5-yl)-[1,1′-biphenyl]-2-sulfonamide] gave a half-life at 1 μM [1, 2] of 0.117 h, a half-life at 1 μM [1, 3] of over 1 h and an inhibition at 10 µM (CYP1A2) of 9.7%. It also gave an inhibition at 10 µM (CYP2B6) of 40.4%, an inhibition at 10 µM (CYP2C19) of 87.8% and an inhibition at 10 µM (CYP2C8) of 59.7%. It also gave an inhibition at 10 µM (CYP2D6) of 16.4%, an inhibition at 10 µM (CYP3A4&5) of 97.9% and an inhibition at 10 µM (CYP2C9) of 90.8%. It also gave an inhibition at 10 µM (CYP3A4) of 98.4%.

With `Cc1nccn1Cc1ccc(-c2cc(CC(C)C)sc2S(=O)(=O)Nc2ncccn2)cc1F` [Example 44, 3-(3-Fluoro-4-((2-methyl-1H-imidazol-1-yl)methyl)phenyl)-5-isobutyl-N-(pyrimidin-2-yl)thiophene-2-sulfonamide] the half-life at 1 μM [1, 2] was over 1 h, the half-life at 1 μM [1, 3] was over 1 h and the inhibition at 10 µM (CYP1A2) was 33%. For the same molecule, the inhibition at 10 µM (CYP2B6) was 14%, the inhibition at 10 µM (CYP2C19) was 64% and the inhibition at 10 µM (CYP2C8) was 43%. It also gave an inhibition at 10 µM (CYP2D6) of 9%, an inhibition at 10 µM (CYP3A4&5) of 67% and an inhibition at 10 µM (CYP2C9) of 30%. It also gave an inhibition at 10 µM (CYP3A4) of 35%.
